Data published in patent US9328122B2, “7-substituted Hanfangichin B derivative, and preparation method and use thereof” (HANGZHOU BENSHENG PHARMACEUTICAL CO., LTD., priority 2012, dated 2016).
Values after ≈ are worked out from the molar mass of the structure shown. Each block holds one compound with its values, some of them ahead of it.

Assays:
[1] = system: NB4 (acute promyelocytic leukemia) cells; assay: MTT cell growth inhibition, leukemia cells; assay type: cell-based; conditions: Homo sapiens, NB4, 72 h, MTT; for IC50: read-out: IC50; for IC90: read-out: IC90
How it was run: (§1)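 MTT read-out of viable cells after 72 h compound exposure at 37° C., 5% CO2; 6000 cells/well in RPMI-1640 + 10% FBS, dosed one day after seeding over a range of concentrations.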

[2] = system: K562/ADR (K562adr, drug-resistant chronic myeloid leukemia) cells; assay: MTT cell growth inhibition, leukemia cells; assay type: cell-based; conditions: Homo sapiens, K562/ADR, 72 h, MTT; for IC50: read-out: IC50; for IC90: read-out: IC90
How it was run: as §1

[3] = system: Jurkat (acute lymphoblastic leukemia) cells; assay: MTT cell growth inhibition, leukemia cells; assay type: cell-based, human; conditions: Homo sapiens, Jurkat, 72 h, MTT; for IC50: read-out: IC50; for IC90: read-out: IC90
How it was run: as §1

[4] = system: Kasumi-1 (acute myeloid leukemia M2 type) cells; assay: MTT cell growth inhibition, leukemia cells; assay type: cell-based, human; conditions: Homo sapiens, Kasumi-1, 72 h, MTT; for IC50: read-out: IC50; for IC90: read-out: IC90
How it was run: as §1

[5] = system: H9 (acute lymphoblastic leukemia) cells; assay: MTT cell growth inhibition, leukemia cells; assay type: cell-based, human; conditions: Homo sapiens, H9, 72 h, MTT; for IC50: read-out: IC50; for IC90: read-out: IC90
How it was run: as §1

[6] = system: RPMI 8226 (multiple myeloma) cells; assay: MTT cell growth inhibition, multiple myeloma cells; assay type: cell-based, human; conditions: Homo sapiens, RPMI 8226, 72 h, MTT; for IC50: read-out: IC50; for IC90: read-out: IC90
How it was run: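 Viable-cell readout by MTT after 72 h exposure (37° C, 5% CO2) of RPMI 8226 cells to a range of compound concentrations, added one day post-seeding. Cells were seeded at 6000 per well in RPMI-1640 containing 10% FBS.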

tumor = assay: Antitumor activity compared with fangchinoline, overall statement; assay type: cell-based; conditions: tumor type not specified
[7] = system: A549 (human lung cancer) cells; assay: MTT cell growth inhibition, solid tumor cells; assay type: cell-based; conditions: Homo sapiens, A549, 72 h, MTT; for IC50: read-out: IC50; for IC90: read-out: IC90
How it was run: (§2)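 Seeding: 6000 cells/well, DMEM high glucose + 10% FBS, 24 h, 37 °C/5% CO2. Compound at graded concentrations, 72 h. Readout MTT (viable cells).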

[8] = system: MG-63 (osteosarcoma) cells; assay: MTT cell growth inhibition, solid tumor cells; assay type: cell-based; conditions: Homo sapiens, MG-63, 72 h, MTT; for IC50: read-out: IC50; for IC90: read-out: IC90
How it was run: as §2

[9] = system: RKO (human colon adenocarcinoma) cells; assay: MTT cell growth inhibition, solid tumor cells; assay type: cell-based; conditions: for IC50 / IC90: Homo sapiens, RKO, 72 h, MTT; for IC50: read-out: IC50; for IC90: read-out: IC90
How it was run: as §2

[10] = system: U87-MG (malignant glioma) cells; assay: MTT cell growth inhibition, solid tumor cells; assay type: cell-based; conditions: Homo sapiens, U-87 MG, U87-MG, 72 h, MTT; for IC50: read-out: IC50; for IC90: read-out: IC90
How it was run: as §2

[11] = system: Hep-2 (laryngeal carcinoma) cells; assay: MTT cell growth inhibition, solid tumor cells; assay type: cell-based; conditions: Homo sapiens, Hep-2, 72 h, MTT; for IC50: read-out: IC50; for IC90: read-out: IC90
How it was run: as §2

[12] = system: Hep G2 (human liver cancer) cells; assay: MTT cell growth inhibition, solid tumor cells; assay type: cell-based; conditions: for IC50 / IC90: Homo sapiens, HepG2, Hep G2, 72 h, MTT; for IC50: read-out: IC50; for IC90: read-out: IC90; for anti-Hep G2 activity increase over fangchinoline: relative to fangchinoline, Table 2
How it was run: as §2

[13] = system: CaEs-17 (esophageal cancer) cells; assay: MTT cell growth inhibition, solid tumor cells; assay type: cell-based, human; conditions: for IC50 / IC90: Homo sapiens, CaEs17, CaEs-17, 72 h, MTT; for IC50: read-out: IC50; for IC90: read-out: IC90; for anti-CaEs-17 activity increase over fangchinoline: relative to fangchinoline, Table 2
How it was run: as §2

[14] = system: PC-3 (prostate cancer) cells; assay: MTT cell growth inhibition, solid tumor cells; assay type: cell-based, human; conditions: for IC50 / IC90: Homo sapiens, PC-3, 72 h, MTT; for IC50: read-out: IC50; for IC90: read-out: IC90
How it was run: as §2

[15] = system: CNE (nasopharyngeal carcinoma) cells; assay: MTT cell growth inhibition, solid tumor cells; assay type: cell-based, human; conditions: for IC50 / IC90: Homo sapiens, CNE, 72 h, MTT; for IC50: read-out: IC50; for IC90: read-out: IC90; for anti-CNE activity increase over fangchinoline: relative to fangchinoline, Table 2
How it was run: as §2

[16] = system: PANC-1 (pancreatic cancer) cells; assay: MTT cell growth inhibition, solid tumor cells; assay type: cell-based, human; conditions: for IC50 / IC90: Homo sapiens, PANC-1, 72 h, MTT; for IC50: read-out: IC50; for IC90: read-out: IC90; for anti-PANC-1 activity increase over fangchinoline: relative to fangchinoline, Table 2
How it was run: as §2

[17] = system: SK-OV-3 (ovarian cancer) cells; assay: MTT cell growth inhibition, solid tumor cells; assay type: cell-based, human; conditions: for IC50 / IC90: Homo sapiens, SK-OV-3, 72 h, MTT; for IC50: read-out: IC50; for IC90: read-out: IC90
How it was run: as §2

[18] = relative to fangchinoline, Table 2

IC50 [1]: 0.3 µg/mL (≈ 0.4 µM)
IC90 [1]: 0.78 µg/mL (≈ 1.04 µM)
IC50 [2]: 0.05 µg/mL (≈ 0.0667 µM)
IC90 [2]: 0.83 µg/mL (≈ 1.11 µM)
IC50 [3]: 0.58 µg/mL (≈ 0.773 µM)
IC90 [3]: 0.96 µg/mL (≈ 1.28 µM)
IC50 [4]: 0.88 µg/mL (≈ 1.17 µM)
IC90 [4]: 2 µg/mL (≈ 2.67 µM)
IC50 [5]: 0.88 µg/mL (≈ 1.17 µM)
IC90 [5]: 1.9 µg/mL (≈ 2.53 µM)
IC50 [6]: < 0.125 µg/mL
IC90 [6]: 0.13 µg/mL (≈ 0.173 µM)
IC50 [7]: 1.84 µg/mL (≈ 2.45 µM)
IC90 [7]: 6.34 µg/mL (≈ 8.45 µM)
IC50 [8]: 0.6 µg/mL (≈ 0.8 µM)
IC90 [8]: 1.3 µg/mL (≈ 1.73 µM)
IC50 [9]: 0.34 µg/mL (≈ 0.453 µM)
IC90 [9]: 0.79 µg/mL (≈ 1.05 µM)
IC50 [10]: 0.71 µg/mL (≈ 0.947 µM)
IC90 [10]: 1.73 µg/mL (≈ 2.31 µM)
IC50 [11]: 1.76 µg/mL (≈ 2.35 µM)
IC90 [11]: 5.66 µg/mL (≈ 7.55 µM)
IC50 [12]: 0.55 µg/mL (≈ 0.733 µM)
IC90 [12]: 2.23 µg/mL (≈ 2.97 µM)
IC50 [13]: 0.43 µg/mL (≈ 0.573 µM)
IC90 [13]: 1.99 µg/mL (≈ 2.65 µM)
IC50 [14]: 1.49 µg/mL (≈ 1.99 µM)
IC90 [14]: 3.96 µg/mL (≈ 5.28 µM)
IC50 [15]: 0.87 µg/mL (≈ 1.16 µM)
IC90 [15]: 2.2 µg/mL (≈ 2.93 µM)
IC50 [16]: 1.03 µg/mL (≈ 1.37 µM)
IC90 [16]: 3.17 µg/mL (≈ 4.23 µM)
IC50 [17]: 1.03 µg/mL (≈ 1.37 µM)
IC90 [17]: 3.85 µg/mL (≈ 5.13 µM)
SMILES: COc1ccc2cc1Oc1ccc(cc1)C[C@H]1c3cc(c(OC)cc3CCN1C)Oc1c(OCC(O)CN3CCCCC3)c(OC)cc3c1[C@H](C2)N(C)CC3 (stereo partly drawn) [BS-FC-403]
antitumor activity compared with that of fangchinoline (tumor): significantly superior
anti-RKO activity increase over fangchinoline [9, 18]: ~3 fold
anti-Hep G2 activity increase over fangchinoline [12]: ~3 fold
anti-CaEs-17 activity increase over fangchinoline [13]: ~4 fold
anti-PC-3 activity increase over fangchinoline [14, 18]: ~3 fold
anti-CNE activity increase over fangchinoline [15]: ~3 fold
anti-PANC-1 activity increase over fangchinoline [16]: ~3 fold
anti-SK-OV-3 activity increase over fangchinoline [17, 18]: ~3 fold

IC50 [1]: 0.47 µg/mL (≈ 0.639 µM)
IC90 [1]: 0.95 µg/mL (≈ 1.29 µM)
IC50 [2]: 0.6 µg/mL (≈ 0.815 µM)
IC90 [2]: 1.73 µg/mL (≈ 2.35 µM)
IC50 [3]: 0.56 µg/mL (≈ 0.761 µM)
IC90 [3]: 0.99 µg/mL (≈ 1.35 µM)
IC50 [4]: 0.76 µg/mL (≈ 1.03 µM)
IC90 [4]: 1.75 µg/mL (≈ 2.38 µM)
IC50 [5]: 1.45 µg/mL (≈ 1.97 µM)
IC90 [5]: 2.9 µg/mL (≈ 3.94 µM)
IC50 [6]: 0.05 µg/mL (≈ 0.0679 µM)
IC90 [6]: 0.44 µg/mL (≈ 0.598 µM)
IC50 [7]: 1.94 µg/mL (≈ 2.64 µM)
IC90 [7]: 5.89 µg/mL (≈ 8 µM)
IC50 [8]: 0.96 µg/mL (≈ 1.3 µM)
IC90 [8]: 1.7 µg/mL (≈ 2.31 µM)
IC50 [9]: 0.46 µg/mL (≈ 0.625 µM)
IC90 [9]: 0.92 µg/mL (≈ 1.25 µM)
IC50 [10]: 0.7 µg/mL (≈ 0.951 µM)
IC90 [10]: 1.41 µg/mL (≈ 1.92 µM)
IC50 [11]: 1.67 µg/mL (≈ 2.27 µM)
IC90 [11]: 4.81 µg/mL (≈ 6.54 µM)
IC50 [12]: 0.71 µg/mL (≈ 0.965 µM)
IC90 [12]: 1.7 µg/mL (≈ 2.31 µM)
IC50 [13]: 0.49 µg/mL (≈ 0.666 µM)
IC90 [13]: 1.95 µg/mL (≈ 2.65 µM)
IC50 [14]: 2.53 µg/mL (≈ 3.44 µM)
IC90 [14]: 3.69 µg/mL (≈ 5.01 µM)
IC50 [15]: 0.8 µg/mL (≈ 1.09 µM)
IC90 [15]: 1.7 µg/mL (≈ 2.31 µM)
IC50 [16]: 1.14 µg/mL (≈ 1.55 µM)
IC90 [16]: 3.34 µg/mL (≈ 4.54 µM)
IC50 [17]: 1.54 µg/mL (≈ 2.09 µM)
IC90 [17]: 3.5 µg/mL (≈ 4.76 µM)
SMILES: COc1ccc2cc1Oc1ccc(cc1)C[C@H]1c3cc(c(OC)cc3CCN1C)Oc1c(OCC(O)CNCC3CC3)c(OC)cc3c1[C@H](C2)N(C)CC3 (stereo partly drawn) [BS-FC-405]
antitumor activity compared with that of fangchinoline (tumor): significantly superior
anti-Hep G2 activity increase over fangchinoline [12]: ~3 fold
anti-CaEs-17 activity increase over fangchinoline [13]: ~4 fold
anti-CNE activity increase over fangchinoline [15]: ~3 fold
anti-PANC-1 activity increase over fangchinoline [16]: ~3 fold
